The text below walks through data of patent publication EP4741383A1, “COMPOUND AND USE THEREOF AS ANTI-CANCER DRUG” (Tyligand Bioscience (Shanghai) Limited, priority 2023, dated 2025).

This series has as its target T1, CYP1A2 (Homo sapiens, UniProt P05177).
T1 construct: tissue Corning or Xenotech; host or cells: human liver microsomes
T1 sequence (P05177 1-516): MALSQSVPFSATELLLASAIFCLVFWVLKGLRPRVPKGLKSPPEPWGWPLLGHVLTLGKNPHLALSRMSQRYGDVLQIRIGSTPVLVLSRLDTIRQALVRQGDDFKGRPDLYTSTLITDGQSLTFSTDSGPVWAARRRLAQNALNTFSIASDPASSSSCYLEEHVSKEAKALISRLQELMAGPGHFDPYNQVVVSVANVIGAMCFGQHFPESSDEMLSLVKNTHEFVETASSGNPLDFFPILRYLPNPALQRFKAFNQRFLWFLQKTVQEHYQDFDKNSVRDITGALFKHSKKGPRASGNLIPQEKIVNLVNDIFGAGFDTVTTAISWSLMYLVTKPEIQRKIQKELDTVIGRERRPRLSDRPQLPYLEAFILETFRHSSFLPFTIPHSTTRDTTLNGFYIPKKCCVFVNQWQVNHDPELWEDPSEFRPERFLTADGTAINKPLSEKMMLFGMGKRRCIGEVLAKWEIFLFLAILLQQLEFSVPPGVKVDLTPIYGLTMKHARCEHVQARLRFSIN
The series can be described thus: CYP450 inhibition in human liver microsomes, CYP1A2. It counts as in vitro ADME. The conditions noted are these: pH 7.4, read-out: % CYP inhibition @ 10 µM 1A2. From the text: According to standard methods in the field for the study of cytochrome P450 enzyme systems, such as the method described in Kerns, Edward H. and Di Li et al., Drug-like Properties: Concepts, Structure Design and Methods: from ADME to Toxicity Optimization (2008), San Diego, Academic Press, and Lin, Tong et al., In Vitro Assessment of Cytochrome P450 Inhibition: Strategies for Increasing LC/MS-Based Assay Throughput Using a One-Point IC50 Method and Multiplexing High-Performance Liquid Chromatography (J. Pharm. Sci. 2007, 96 (9), 2485). The inhibitory effect of the disclosed compounds on the cytochrome P450 enzyme system was similarly examined below.
Human liver microsomes were purchased from Corning or Xenotech. The test compounds were evaluated by detecting the metabolism of substrates for different Cyp450 isoforms by human liver microsomes.
0.1 M potassium phosphate buffer (K-buffer, pH 7.4) was pre-warmed.
100 mM K-buffer was prepared by mixing 9.5 mL of stock solution A (1 M potassium dihydrogen phosphate, prepared by dissolving 136.5 g of potassium dihydrogen phosphate in 1 L of Milli-Q water) with 40.5 mL of stock solution B (1 M potassium hydrogen phosphate, prepared by dissolving 174.2 g of potassium hydrogen phosphate in 1 L of Milli-Q water). The total volume was adjusted to 500 mL with Milli-Q water, and the buffer was titrated to pH 7.4 using KOH or H3PO4.
Test compound solution and specific inhibitor solution (400× dilution) were prepared in a 96-well plate. For the test compound, 8 µL of 10 mM test compound was transferred into 12 µL of ACN. For specific inhibitors of CYP1A2, CYP2C9, and CYP2D6: 12 µL of 1 mM α-naphthoflavone, 10 µL of 40 mM sulfaphenazole, 10 µL of 10 mM quinidine, and 8 µL of DMSO were mixed. For specific inhibitors of CYP3A4, CYP2B6, CYP2C8, and CYP2C19: 8 µL of DMSO stock solution was added to 12 µL of ACN.
A 4× diluted NADPH solution was prepared by dissolving 66.7 mg of NADPH in 10 mL of 0.1 M K-buffer (pH 7.4). […]

Each structure is given as a SMILES string.

Regarding `CC1(n2c(-c3ccc(NC(=O)C(=O)Nc4ccc(N5CCC6(CCOC6)CC5)cc4)cc3)cc3cc(F)c(-c4nnn[nH]4)cc32)CCC1` [Example 68], the inhibition at 10 min, 10 µM stood at 11.4%.

Regarding `O=C(Nc1ccc(-c2cc3cc(F)c(-c4nnn[nH]4)cc3n2C2CCC2)cc1)C(=O)Nc1ccc(N2CCC(CO)CC2)cc1` [Example 23], the inhibition at 10 min, 10 µM came to 17.1%.

Take `O=C(Nc1ccc(-c2cc3cc(F)c(-c4nnn[nH]4)cc3n2C2CCC2)cc1)C(=O)Nc1ccc(N2CCC3(CCOC3)CC2)cc1` [Example 67]: the inhibition at 10 min, 10 µM was determined as 9.47%.

The term inhibition denotes the percentage by which the read-out fell short of the control.
